Structures can show the parent of a compound that is named as a salt.
Target: ROCK2 (Homo sapiens, UniProt O75116)
Assay: ROCK assay: phosphorylation of FITC peptide substrate, LABCHIP 3000 mobility shift
Format: biochemical
Details: 5 μM ATP, 1.5 μM peptide substrate; read-out: ROCK2 Activity (ROCK IC50 range)
Summary of the method: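 IC50 values come from curve-fitting percent kinase inhibition across a compound dilution series. The reaction is started with Rho kinase variant in HEPES pH 7.5 buffer with MgCl2, Brij-35 and DTT, with 5 μM ATP, 1.5 μM FITC-labelled peptide and under 2% DMSO. After EDTA quench, product and substrate are separated by microfluidic mobility shift.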

Sequence of ROCK2 (O75116 whole entry, species assumed): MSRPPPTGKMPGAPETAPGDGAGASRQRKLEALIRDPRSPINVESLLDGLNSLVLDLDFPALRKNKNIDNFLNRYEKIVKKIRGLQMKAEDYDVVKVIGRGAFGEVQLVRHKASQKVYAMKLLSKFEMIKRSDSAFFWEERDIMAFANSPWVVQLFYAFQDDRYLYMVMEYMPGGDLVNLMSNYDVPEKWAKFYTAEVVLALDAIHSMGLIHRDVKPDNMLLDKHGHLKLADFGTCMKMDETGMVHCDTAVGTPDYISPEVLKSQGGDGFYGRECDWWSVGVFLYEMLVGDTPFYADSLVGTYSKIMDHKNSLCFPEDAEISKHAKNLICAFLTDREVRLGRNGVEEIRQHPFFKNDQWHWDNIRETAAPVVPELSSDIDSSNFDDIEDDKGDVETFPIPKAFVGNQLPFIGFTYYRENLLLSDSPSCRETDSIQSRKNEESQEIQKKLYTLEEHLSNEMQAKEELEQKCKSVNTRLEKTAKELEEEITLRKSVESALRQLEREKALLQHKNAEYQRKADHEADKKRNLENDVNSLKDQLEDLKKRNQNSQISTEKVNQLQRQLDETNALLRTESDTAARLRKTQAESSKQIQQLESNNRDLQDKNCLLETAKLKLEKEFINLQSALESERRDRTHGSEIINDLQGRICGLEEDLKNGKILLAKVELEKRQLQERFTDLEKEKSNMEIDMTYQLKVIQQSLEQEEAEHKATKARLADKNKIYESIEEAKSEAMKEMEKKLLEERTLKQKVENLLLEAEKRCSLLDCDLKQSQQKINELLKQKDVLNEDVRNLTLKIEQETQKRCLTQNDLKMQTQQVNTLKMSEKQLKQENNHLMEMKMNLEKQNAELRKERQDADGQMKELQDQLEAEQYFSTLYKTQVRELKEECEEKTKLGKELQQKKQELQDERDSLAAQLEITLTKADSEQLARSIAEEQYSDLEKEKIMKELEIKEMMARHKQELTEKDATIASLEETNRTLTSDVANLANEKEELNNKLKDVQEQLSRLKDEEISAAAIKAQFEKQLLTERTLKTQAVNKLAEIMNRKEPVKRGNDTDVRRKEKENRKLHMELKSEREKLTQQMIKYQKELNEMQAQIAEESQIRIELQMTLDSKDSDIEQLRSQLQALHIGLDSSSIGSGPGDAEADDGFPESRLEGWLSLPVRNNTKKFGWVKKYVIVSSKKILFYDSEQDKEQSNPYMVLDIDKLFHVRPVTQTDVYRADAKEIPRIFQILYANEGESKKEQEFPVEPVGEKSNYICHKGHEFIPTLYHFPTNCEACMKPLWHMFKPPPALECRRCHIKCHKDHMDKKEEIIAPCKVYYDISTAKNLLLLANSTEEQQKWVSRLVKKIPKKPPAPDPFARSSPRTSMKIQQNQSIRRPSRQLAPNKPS

SMILES	IC50
[H][C@]1(c2n[nH]c(=O)c3ccccc32)C[C@]2(C[C@@H](NC(=O)c3cnc4c(OCc5ccccc5)cccn34)C2)C1 (stereo partly drawn) [Example 413, 8-(benzyloxy)-N-((aR)-6-(4-oxo-3,4-dihydrophthalazin-1-yl)spiro[3.3]heptan-2-yl)imidazo[1,2-a]pyridine-3-carboxamide]	0.2 to 2 nM
[H][C@]1(c2n[nH]c(=O)c3ccccc32)C[C@]2(C[C@@H](NC(=O)c3cnc4cc(SC)ccn34)C2)C1 (stereo partly drawn) [Example 414, 7-(methylthio)-N-((aR)-6-(4-oxo-3,4-dihydrophthalazin-1-yl)spiro[3.3]heptan-2-yl)imidazo[1,2-a]pyridine-3-carboxamide]	0.2 to 2 nM
[H][C@]1(c2n[nH]c(=O)c3ccccc32)C[C@]2(C[C@@H](NC(=O)c3cc4n(n3)CCNC4=O)C2)C1 (stereo partly drawn) [Example 415, 4-oxo-N-((aR)-6-(4-oxo-3,4-dihydrophthalazin-1-yl)spiro[3,3]heptan-2-yl)-4,5,6,7-tetrahydropyrazolo[1,5-a]pyrazine-2-carboxamide]	100 to 2100 nM
[H][C@]1(c2n[nH]c(=O)c3ccccc32)C[C@]2(C[C@@H](NC(=O)c3ccc(-c4cn[nH]c4)c(OC)c3)C2)C1 (stereo partly drawn) [Example 416, 3-methoxy-N-((aR)-6-(4-oxo-3,4-dihydrophthalazin-1-yl)spiro[3.3]heptan-2-yl)-4-(1H-pyrazol-4-yl)benzamide]	0.2 to 2 nM
[H][C@]1(c2n[nH]c(=O)c3ccccc32)C[C@]2(C[C@@H](NC(=O)c3ccc(-c4cn[nH]c4)c(C#N)c3)C2)C1 (stereo partly drawn) [Example 417, 3-cyano-N-((aR)-6-(4-oxo-3,4-dihydrophthalazin-1-yl)spiro[3.3]heptan-2-yl)-4-(1H-pyrazol-4-yl)benzamide]	0.2 to 2 nM
[H][C@]1(c2n[nH]c(=O)c3ccccc32)C[C@]2(C[C@@H](NC(=O)c3ccc(-c4cn[nH]c4)c(C)c3)C2)C1 (stereo partly drawn) [Example 418, 3-methyl-N-((aR)-6-(4-oxo-3,4-dihydrophthalazin-1-yl)spiro[3,3]heptan-2-yl)-4-(1H-pyrazol-4-yl)benzamide]	0.2 to 2 nM
[H][C@]1(c2n[nH]c(=O)c3ccccc32)C[C@]2(C[C@@H](NC(=O)c3ccc(-c4cn[nH]c4)cc3OC)C2)C1 (stereo partly drawn) [Example 419, 2-methoxy-N-((aR)-6-(4-oxo-3,4-dihydrophthalazin-1-yl)spiro[3.3]heptan-2-yl)-4-(1H-pyrazol-4-yl)benzamide]	2.01 to 5 nM
[H][C@]1(c2n[nH]c(=O)c3ccccc32)C[C@]2(C[C@@H](NC(=O)c3cc4cccc(-c5cnn(C)c5)c4[nH]3)C2)C1 (stereo partly drawn) [Example 420, 7-(1-methyl-1H-pyrazol-4-yl)-N-((aR)-6-(4-oxo-3,4-dihydrophthalazin-1-yl)spiro[3.3]heptan-2-yl)-1H-indole-2-carboxamide]	5.1 to 15 nM
[H][C@]1(c2n[nH]c(=O)c3ccccc32)C[C@]2(C[C@@H](NC(=O)c3ccc4c(c3)COc3cncnc3-4)C2)C1 (stereo partly drawn) [Example 421, N-((aR)-6-(4-oxo-3,4-dihydrophthalazin-1-yl)spiro[3.3]heptan-2-yl)-6H-isochromeno[4,3-d]pyrimidine-8-carboxamide]	15.1 to 100 nM
[H][C@]1(c2n[nH]c(=O)c3ccccc32)C[C@]2(C[C@@H](NC(=O)c3ccc(-c4cnn(C)c4)c(OC)c3)C2)C1 (stereo partly drawn) [Example 422, 3-methoxy-4-(1-methyl-1H-pyrazol-4-yl)-N-((aR)-6-(4-oxo-3,4-dihydrophthalazin-1-yl)spiro[3.3]heptan-2-yl)benzamide]	2.01 to 5 nM
[H][C@]1(c2n[nH]c(=O)c3ccccc32)C[C@]2(C[C@@H](NC(=O)c3ccc(-c4cnn(C)c4)c(F)c3)C2)C1 (stereo partly drawn) [Example 423, 3-fluoro-4-(1-methyl-1H-pyrazol-4-yl)-N-((aR)-6-(4-oxo-3,4-dihydrophthalazin-1-yl)spiro[3.3]heptan-2-yl)benzamide]	2.01 to 5 nM
[H][C@]1(c2n[nH]c(=O)c3ccccc32)C[C@]2(C[C@@H](NC(=O)c3ccc(-c4cnn(C)c4)nc3)C2)C1 (stereo partly drawn) [Example 425, 6-(1-methyl-1H-pyrazol-4-yl)-N-((aR)-6-(4-oxo-3,4-dihydrophthalazin-1-yl)spiro[3.3]heptan-2-yl)nicotinamide]	5.1 to 15 nM
[H][C@]1(c2n[nH]c(=O)c3ccccc32)C[C@]2(C[C@@H](NC(=O)c3cnc4cc(C(C)=O)ccn34)C2)C1 (stereo partly drawn) [Example 426, 7-acetyl-N-((aR)-6-(4-oxo-3,4-dihydrophthalazin-1-yl)spiro[3.3]heptan-2-yl)imidazo[1,2-a]pyridine-3-carboxamide]	0.2 to 2 nM
[2H]C([2H])([2H])n1cc(-c2ccc(C(=O)N[C@H]3CC4(C3)C[C@H](c3n[nH]c(=O)c5ccccc53)C4)cc2F)cn1 (stereo partly drawn) [Example 427, 3-fluoro-4-(1-d3-methyl-1H-pyrazol-4-yl)-N-((aR)-6-(4-oxo-3,4-dihydrophthalazin-1-yl)spiro[3.3]heptan-2-yl)benzamide]	5.1 to 15 nM
[H][C@]1(c2n[nH]c(=O)c3ccccc32)C[C@]2(C[C@@H](NC(=O)c3ccc(-c4cnn(C(F)F)c4)c(F)c3)C2)C1 (stereo partly drawn) [Example 428, 4-(1-(difluoromethyl)-1H-pyrazol-4-yl)-3-fluoro-N-((aR)-6-(4-oxo-3,4-dihydrophthalazin-1-yl)spiro[3.3]heptan-2-yl)benzamide]	5.1 to 15 nM
[H][C@]1(c2n[nH]c(=O)c3ccccc32)C[C@]2(C[C@@H](NC(=O)c3cnc4cc(C(C)(C)O)ccn34)C2)C1 (stereo partly drawn) [Example 429, 7-(2-hydroxypropan-2-yl)-N-((aR)-6-(4-oxo-3,4-dihydrophthalazin-1-yl)spiro[3.3]heptan-2-yl)imidazo[1,2-a]pyridine-3-carboxamide]	15.1 to 100 nM
[H][C@]1(c2n[nH]c(=O)c3ccccc32)C[C@]2(C[C@@H](NC(=O)c3cnc4cc(C(C)O)ccn34)C2)C1 (stereo partly drawn) [Example 430, 7-(1-hydroxyethyl)-N-((aR)-6-(4-oxo-3,4-dihydrophthalazin-1-yl)spiro[3.3]heptan-2-yl)imidazo[1,2-a]pyridine-3-carboxamide]	5.1 to 15 nM
[H][C@]1(c2n[nH]c(=O)c3ccccc32)C[C@]2(C[C@@H](NC(=O)c3cnc4cc(OC5CCS(=O)(=O)CC5)ccn34)C2)C1 (stereo partly drawn) [Example 431, 7-((1,1-dioxidotetrahydro-2H-thiopyran-4-yl)oxy)-N-((aR)-6-(4-oxo-3,4-dihydrophthalazin-1-yl)spiro[3.3]heptan-2-yl)imidazo[1,2-a]pyridine-3-carboxamide]	0.2 to 2 nM
[H][C@]1(c2n[nH]c(=O)c3ccccc32)C[C@]2(C[C@@H](NC(=O)c3cnc4cc(OCCC(F)(F)F)ccn34)C2)C1 (stereo partly drawn) [Example 432, N-((aR)-6-(4-oxo-3,4-dihydrophthalazin-1-yl)spiro[3.3]heptan-2-yl)-7-(3,3,3-trifluoro-propoxy)imidazo[1,2-a]pyridine-3-carboxamide]	2.01 to 5 nM

Second part, the compound after the results:

IC50	SMILES
2.01 to 5 nM	[H][C@]1(c2n[nH]c(=O)c3ccccc32)C[C@]2(C[C@@H](NC(=O)c3cnc4cc(OC(CF)CF)ccn34)C2)C1 (stereo partly drawn) [Example 433, 7-((1,3-difluoropropan-2-yl)oxy)-N-((aR)-6-(4-oxo-3,4-dihydrophthalazin-1-yl)spiro[3.3]heptan-2-yl)imidazo[1,2-a]pyridine-3-carboxamide]
0.2 to 2 nM	[H][C@]1(c2n[nH]c(=O)c3ccccc32)C[C@]2(C[C@@H](NC(=O)c3cnc4cc(Oc5ccccn5)ccn34)C2)C1 (stereo partly drawn) [Example 434, N-((aR)-6-(4-oxo-3,4-dihydrophthalazin-1-yl)spiro[3.3]heptan-2-yl)-7-(pyridin-2-yloxy)imidazo[1,2-a]pyridine-3-carboxamidc]
5.1 to 15 nM	[H][C@]1(c2n[nH]c(=O)c3ccccc32)C[C@]2(C[C@@H](NC(=O)c3nc(C(C)C)n4ccccc34)C2)C1 (stereo partly drawn) [Example 435, 3-isopropyl-N-((aR)-6-(4-oxo-3,4-dihydrophthalazin-1-yl)spiro[3.3]heptan-2-yl)imidazo[1,5-a]pyridine-1-carboxamide]
0.2 to 2 nM	[H][C@]1(c2n[nH]c(=O)c3ccccc32)C[C@]2(C[C@@H](NC(=O)c3cnc4cc(OCC(F)F)ccn34)C2)C1 (stereo partly drawn) [Example 436, 7-(2,2-difluoroethoxy)-N-((aR)-6-(4-oxo-3,4-dihydrophthalazin-1-yl)spiro[3.3]heptan-2-yl)imidazo[1,2-a]pyridine-3-carboxamide]
2.01 to 5 nM	[H][C@]1(c2n[nH]c(=O)c3ccccc32)C[C@]2(C[C@@H](NC(=O)c3cnc4cc(OC(C)C)ccn34)C2)C1 (stereo partly drawn) [Example 437, 7-isopropoxy-N-((aR)-6-(4-oxo-3,4-dihydrophthalazin-1-yl)spiro[3.3]heptan-2-yl)imidazo[1,2-a]pyridine-3-carboxamide]
100 to 2100 nM	[H][C@]1(c2n[nH]c(=O)c3ccccc32)C[C@]2(C[C@@H](NC(=O)c3cnn4cccc(N5CCOCC5)c34)C2)C1 (stereo partly drawn) [Example 438, 4-morpholino-N-((aR)-6-(4-oxo-3,4-dihydrophthalazin-1-yl)spiro[3.3]heptan-2-yl)pyrazolo[1,5-a]pyridine-3-carboxamide]
0.2 to 2 nM	CCn1cc(-c2ccn3c(C(=O)N[C@H]4CC5(C4)C[C@H](c4n[nH]c(=O)c6ccccc64)C5)cnc3c2)cn1 (stereo partly drawn) [Example 439, 7-(1-ethyl-1H-pyrazol-4-yl)-N-((aR)-6-(4-oxo-3,4-dihydrophthalazin-1-yl)spiro[3.3]heptan-2-yl)imidazo[1,2-a]pyridine-3-carboxamide, TFA salt]
0.2 to 2 nM	[H][C@]1(c2n[nH]c(=O)c3ccccc32)C[C@]2(C[C@@H](NC(=O)c3cnc4cc(-c5cnn(C)c5)ccn34)C2)C1 (stereo partly drawn) [Example 440, 7-(1-methyl-1H-pyrazol-4-yl)-N-((aR)-6-(4-oxo-3,4-dihydrophthalazin-1-yl)spiro[3.3]heptan-2-yl)imidazo[1,2-a]pyridine-3-carboxamide]
0.2 to 2 nM	[H][C@]1(c2n[nH]c(=O)c3ccccc32)C[C@]2(C[C@@H](NC(=O)c3cnc4cc(-c5cnn(C(C)C)c5)ccn34)C2)C1 (stereo partly drawn) [Example 441, 7-(1-isopropyl-1H-pyrazol-4-yl)-N-((aR)-6-(4-oxo-3,4-dihydrophthalazin-1-yl)spiro[3.3]heptan-2-yl)imidazo[1,2-a]pyridine-3-carboxamide]

— patent publication US9902702B2, “Spirocycloheptanes as inhibitors of rock” (BRISTOL-MYERS SQUIBB COMPANY, priority 2014, dated 2018)
